Measurements: ChEMBL document CHEMBL5625277, “Systematical mutational analysis of teriparatide on anti-osteoporosis activity by alanine scanning” (Bioorg Med Chem Lett, 2024)
The source made the active and inactive calls. The rule behind the calls is not given here.

Assays:
Calvarial osteoblast = assay: Induction of mineralization in osteoblast assessed as formation of calcium nodules at 50 to 100 nM measured after 14 days by Alizarin Red S staining based analysis; format: functional, cell-based; conditions: dose 50-100 nM, time 14.0 day
Skull progenitor cell = assay: Induction of osteoblast differentiation in mouse skull progenitor cells assessed as increase in purple-stained ALP-positive cells at 100 nM measured after 4 days by imaging analysis; format: functional, cell-based; conditions: time 4.0 day
[1] = Cytotoxicity in pre-osteoblasts (unknown origin) assessed as cell death upto 5 uM by CCK8 assay; format: toxicity, cell-based; conditions: pre-osteoblast

With `CC[C@H](C)[C@H](NC(=O)[C@H](CCC(=O)O)NC(=O)[C@H](CO)NC(=O)[C@@H](NC(=O)[C@H](CO)NC(C)=O)C(C)C)C(=O)N[C@@H](CCC(N)=O)C(=O)N[C@@H](CC(C)C)C(=O)N[C@@H](CCSC)C(=O)N[C@@H](Cc1cnc[nH]1)C(=O)N[C@@H](CC(N)=O)C(=O)N[C@@H](CC(C)C)C(=O)NCC(=O)N[C@@H](C)C(=O)N[C@@H](Cc1cnc[nH]1)C(=O)N[C@@H](CC(C)C)C(=O)N[C@@H](CC(N)=O)C(=O)N[C@@H](CO)C(=O)N[C@@H](CCSC)C(=O)N[C@@H](CCC(=O)O)C(=O)N[C@@H](CCCNC(=N)N)C(=O)N[C@H](C(=O)N[C@@H](CCC(=O)O)C(=O)N[C@@H](Cc1c[nH]c2ccccc12)C(=O)N[C@@H](CC(C)C)C(=O)N[C@@H](CCCNC(=N)N)C(=O)N[C@@H](CCCCN)C(=O)N[C@@H](CCCCN)C(=O)N[C@@H](CC(C)C)C(=O)N[C@@H](CCC(N)=O)C(=O)N[C@@H](CC(=O)O)C(=O)N[C@H](C(=O)N[C@@H](Cc1cnc[nH]1)C(=O)N[C@@H](CC(N)=O)C(=O)N[C@@H](Cc1ccccc1)C(N)=O)C(C)C)C(C)C` the Activity (Calvarial osteoblast) was “Active”, the Activity (Skull progenitor cell) was “Active” and the Activity [1] was “Non-Toxic”.
In the case of `CC[C@H](C)[C@H](NC(=O)[C@H](CCC(=O)O)NC(=O)[C@H](CO)NC(=O)[C@@H](NC(=O)[C@H](CO)NC(C)=O)C(C)C)C(=O)N[C@@H](CCC(N)=O)C(=O)N[C@@H](CC(C)C)C(=O)N[C@@H](CCSC)C(=O)N[C@@H](Cc1cnc[nH]1)C(=O)N[C@@H](CC(N)=O)C(=O)N[C@@H](CC(C)C)C(=O)NCC(=O)N[C@@H](CCCCN)C(=O)N[C@@H](Cc1cnc[nH]1)C(=O)N[C@@H](CC(C)C)C(=O)N[C@@H](CC(N)=O)C(=O)N[C@@H](CO)C(=O)N[C@@H](CCSC)C(=O)N[C@@H](CCC(=O)O)C(=O)N[C@@H](CCCNC(=N)N)C(=O)N[C@H](C(=O)N[C@@H](CCC(=O)O)C(=O)N[C@@H](Cc1c[nH]c2ccccc12)C(=O)N[C@@H](CC(C)C)C(=O)N[C@@H](CCCNC(=N)N)C(=O)N[C@@H](CCCCN)C(=O)N[C@@H](CCCCN)C(=O)N[C@@H](CC(C)C)C(=O)N[C@@H](CCC(N)=O)C(=O)N[C@@H](C)C(=O)N[C@H](C(=O)N[C@@H](Cc1cnc[nH]1)C(=O)N[C@@H](CC(N)=O)C(=O)N[C@@H](Cc1ccccc1)C(N)=O)C(C)C)C(C)C`, the Activity (Calvarial osteoblast) is reported as “Active”, the Activity (Skull progenitor cell) is reported as “Active” and the Activity [1] is reported as “Non-Toxic”.
